According to patent US20050143450A1, “Alkyl PCDF as a treatment for prostate cancer” (priority 2002, published 2005):

Experiments:
[1] = tested on: AR; assay: AR protein levels in LNCaP cells by Western blot; assay type: cell-based, human; conditions: 6 h; for AR protein levels, compound alone: DHT 10 nM, E2 10 nM, TCDD 10 nM, 6-MCDF 2 μM, HPTE 10 μM
Protocol: Cells were harvested 6 h after treatment using 200 μL/22-mm well of ice cold lysis buffer (50 mM HEPES, pH 7.5, 500 mM NaCl, 10% (v/v) glycerol, 1% (v/v) Triton-X 100, 1.5 mM MgCl2, 1 mM EGTA) (McDougal et al., 2001). Lysates were centrifuged at 40,000 g, and supernatant was collected as extract. Whole cell extracts (50 μg/sample) were separated by electrophoresis on a tiered 7.5% (top)/12.5% (bottom) SDS-polyacrylamide gel and transferred to PVDF membrane (Bio-Rad, Richmond, Calif.). The membrane was blocked with 5% milk (m/v) in tris-buffered saline 0.05% Tween (TBST). Membranes were incubated with primary antibodies for AR (sc-7305), cyclin D1 (sc-718), or p27 (sc-528) (each from Santa Cruz Biotechnology, Santa Cruz, Calif.) at 1:1000 in 5% milk/TBST for 3 h. Membranes were washed twice in TBST. Horseradish peroxidase (HRP)-conjugated secondary antibodies were applied at 1:5000 in 5% milk/TBST for 1 h. After two TBST washes, PVDF-bounded antibodies were detected using a chemiluminescence kit (Western Lightning, PerkinElmer), ImageTek-H film (American X-Ray and Medical Supply, Rancho Cordova, Calif.) and an autoprocessor (Hope Macro-Med, Warminster, Pa.). Quantitation of the Western blot was performed using a Sharp JX-330 scanner (Sharp, Mahwah, N.J.) and Zero-D software (Scanalytics, Billerica, Mass.).

[2] = molecular target: T1, AR (Homo sapiens, UniProt P10275, T878A); assay type: cell-based; conditions: LNCaP; for effect on DHT-induced luciferase activity: pARR3, cotreatment with DHT; for effect on E2-induced luciferase activity: pARR3, cotreatment with E2
T1 construct: AR protein levels in whole cell lysates were determined by Western blot analysis; endogenous in cells; host or cells: LNCaP
T1 sequence (P10275 1-920 T878A): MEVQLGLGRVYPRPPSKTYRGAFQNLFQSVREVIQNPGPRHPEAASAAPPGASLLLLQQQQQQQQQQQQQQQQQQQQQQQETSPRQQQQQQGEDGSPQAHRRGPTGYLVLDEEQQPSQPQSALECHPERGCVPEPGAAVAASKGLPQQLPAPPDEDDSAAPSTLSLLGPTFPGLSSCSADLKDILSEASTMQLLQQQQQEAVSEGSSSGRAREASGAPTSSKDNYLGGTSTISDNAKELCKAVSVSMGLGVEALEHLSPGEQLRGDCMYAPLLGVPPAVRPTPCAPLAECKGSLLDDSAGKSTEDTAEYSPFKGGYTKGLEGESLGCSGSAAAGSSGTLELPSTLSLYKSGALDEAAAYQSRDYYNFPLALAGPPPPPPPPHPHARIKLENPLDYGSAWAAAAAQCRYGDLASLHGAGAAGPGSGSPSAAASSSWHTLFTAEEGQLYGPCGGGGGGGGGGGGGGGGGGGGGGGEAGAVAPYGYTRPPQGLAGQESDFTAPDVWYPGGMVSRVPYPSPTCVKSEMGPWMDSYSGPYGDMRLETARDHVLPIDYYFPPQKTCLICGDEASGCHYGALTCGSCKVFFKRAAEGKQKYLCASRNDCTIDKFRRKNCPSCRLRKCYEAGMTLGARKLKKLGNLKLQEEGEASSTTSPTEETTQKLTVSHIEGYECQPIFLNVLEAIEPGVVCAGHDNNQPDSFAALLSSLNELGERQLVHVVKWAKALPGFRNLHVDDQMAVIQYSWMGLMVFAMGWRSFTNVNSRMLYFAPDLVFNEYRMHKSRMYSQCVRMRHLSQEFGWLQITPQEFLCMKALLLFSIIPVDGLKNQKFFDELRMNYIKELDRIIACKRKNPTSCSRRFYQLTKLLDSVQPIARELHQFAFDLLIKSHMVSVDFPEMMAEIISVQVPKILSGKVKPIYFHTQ
Protocol: (§1) After 24 h, cells were transfected using Lipofectamine and Plus reagents (Invitrogen) according to manufacturer's instructions. LNCaP and ZR-75 cells were transfected with 500 ng/well of either reporter plasmid, and 250 ng/well of pcDNA3.1-β-gal (Invitrogen) as the internal control. In addition, ZR-75 cells were transfected with 500 ng hAR. Twenty-four hours after treatment, cells were harvested by scraping with 200 μL/well of reporter lysis buffer. Lysates were centrifuged at 40,000 g and luciferase and β-galactosidase activity was assayed with 30 μL of the supernatant extract per sample using a Lumicount luminometer (PerkinElmer, Boston, Mass.). Luciferase activity was normalized to β-galactosidase activity for each transfection well.
Next, LNCaP cells were transfected with pARR3 construct that contained three tandem (3) copies of the probasin androgen response element. The transfected cells were treated with hormone or AhR agonist alone or in combination and luciferase activity was determined as described in the above examples.

[3] = molecular target: T2, AhR (Homo sapiens, UniProt P35869); assay: AhR activation, pDRE3 luciferase transient transfection in LNCaP cells; assay type: cell-based
T2 construct: LNCaP cells were transfected with pDRE3, treated with various compounds and luciferase activity was determined; endogenous in cells; host or cells: LNCaP
T2 sequence (P35869 11-848): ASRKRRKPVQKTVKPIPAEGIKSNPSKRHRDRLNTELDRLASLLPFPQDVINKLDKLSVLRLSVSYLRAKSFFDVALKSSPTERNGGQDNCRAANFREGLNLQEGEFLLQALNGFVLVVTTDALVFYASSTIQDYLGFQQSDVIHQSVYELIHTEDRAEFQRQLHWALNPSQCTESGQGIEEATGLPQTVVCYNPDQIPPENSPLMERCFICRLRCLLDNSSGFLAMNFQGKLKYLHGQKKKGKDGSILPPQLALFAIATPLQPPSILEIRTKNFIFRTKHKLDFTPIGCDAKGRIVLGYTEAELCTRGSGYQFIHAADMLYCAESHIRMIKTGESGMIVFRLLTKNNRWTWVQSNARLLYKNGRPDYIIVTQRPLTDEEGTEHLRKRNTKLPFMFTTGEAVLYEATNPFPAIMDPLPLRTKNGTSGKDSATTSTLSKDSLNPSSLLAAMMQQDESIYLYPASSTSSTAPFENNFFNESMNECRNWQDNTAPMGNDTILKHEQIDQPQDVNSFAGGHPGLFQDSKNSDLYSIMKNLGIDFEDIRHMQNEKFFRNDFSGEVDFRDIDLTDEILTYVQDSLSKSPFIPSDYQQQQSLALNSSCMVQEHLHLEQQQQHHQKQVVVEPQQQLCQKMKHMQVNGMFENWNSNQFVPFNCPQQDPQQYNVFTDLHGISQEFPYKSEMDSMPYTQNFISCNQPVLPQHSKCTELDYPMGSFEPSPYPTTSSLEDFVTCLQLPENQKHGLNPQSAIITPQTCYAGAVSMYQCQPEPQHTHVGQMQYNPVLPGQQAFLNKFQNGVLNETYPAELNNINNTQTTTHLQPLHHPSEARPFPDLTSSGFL
Protocol: as §1
LNCaP cells were transfected with pDRE3, treated with various compounds and luciferase activity was determined as described in the above Examples.

Row | Structure (SMILES) | AR levels in combination with DHT compared to DHT alone [1] | AR protein levels, compound alone [1] | effect on DHT-induced luciferase activity [2] | effect on E2-induced luciferase activity [2] | luciferase activity induction ([3]; pDRE3, 2 μM) | AR levels in combination with E2 compared to E2 alone [1] | luciferase activity induction compared to solvent control (DMSO) ([3]; pDRE3, 10 nM)
1 | Cc1cc(Cl)cc2c1oc1cc(Cl)cc(Cl)c12 [6-MCDF, 6-methyl-1,3,8-trichlorodibenzofuran] | significant decrease | did not significantly affect | did not decrease | not a significant decrease | > 7 fold | – | –
2 | Clc1cc2c(cc1Cl)Oc1cc(Cl)c(Cl)cc1O2 [TCDD, 2,3,7,8-tetrachloro-p-dioxin] | significant decrease | did not significantly affect | did not decrease | not a significant decrease | – | decreased | > 9 fold
